Measured values taken from patent publication US20040166151A1, “Lipid-based drug delivery systems containing phospholipase A2 degradable lipid derivatives and the therapeutic uses thereof” (priority 2000, published 2004).

Experiments:
mice = assay: In vivo hemolysis assay; conditions: i.v., 50 mg/kg
Description: Groups of mice (n=5/group; weight 18-22 g) were treated i.v. with buffer (PBS), ET-18-OCH3 (50 mg/kg), and liposomes composed of 1-O-DPPC with 5 mol % 1-O-DPPE-PEG2000 (68.7 and 137.5 mg/kg). 30 min after injection, 100 μl blood was collected into heparinised tubes directly from decapitated, CO2-anesthetised mice. The blood was centrifuged at 500×G for 10 min, and plasma was removed and stored at −20° C. until analysed.
The degree of hemolysis was measured by absorbance at 550 nm using a Perkin-Elmer 320 scanning spectrophotometer. 25 μl plasma was mixed with 2,5 ml PBS or 2.5 ml 10% triton X-100. 100 percent hemolysis was defined as the maximum amount of hemolysis obtained from the plasma of PBS treated mice mixed with 10% Triton X-100 and 0 percent as plasma from PBS treated mice mixed with PBS.

[1] = system: human red blood cells (RBC); assay: Hemolysis assay; conditions: low concentrations, 37° C., 20 hours
Description: Briefly, each sample was serially diluted with phosphate buffered saline (PBS), and 0.5 ml of each dilute suspension was mixed with 0.5 ml washed human red blood cells (RBC) [4% in PBS (v/v)]. Sample and standard were placed in a 37° C. incubator and agitated for 20 hours. Tubes were centrifuged at low speed (2000×G) for 10 minutes and 200 μl of the supernatant was quantitated by absorbance at 550 nm. 100 percent hemolysis was defined as the maximum amount of hemolysis obtained from the detergent Triton X-100.
1-O-octadecyl-2-O-methyl-sn-glycero-3-phosphocholine (ET-18-OCH3) in PBS was included in the assay as a reference.
Briefly, each sample was serially diluted with PBS, and 0.5 ml of each dilute suspension of 1-O-DPPC liposomes were mixed with 0.5 ml washed human red blood cells (RBC) [4% in PBS (v/v)]. For controls, 0.5 ml of the red blood cell suspension was mixed with either 0.5 ml buffer solution (negative hemolysis control) or 0.5 ml water (positive hemolysis control). Samples and standard were placed in a 37° C. incubator and agitated for 20 hours. Tubes were centrifuged at low speed (2000×G) for 10 minutes to form RBCs pellets. 200 μl of the supernatant was quantitated by absorbance at 550 nm using a Perkin-Elmer 320 scanning spectrophotometer. 100 percent hemolysis was defined as the maximum amount of hemolysis obtained from the detergent Triton X-100.

extracellular PLA2 = molecular target: T1, extracellular PLA2 (Agkistrodon piscivorus piscivorus, UniProt P51972); assay: Effect of cholesterol content of liposomes on extracellular PLA2 activity; type: biochemical
T1 construct: Purified snake venom PLA2 (Agkistrodon piscivorus piscivorus) was a generous gift; tissue gift from dr; R. L. Biltonen; host or cells: snake venom of Agkistrodon piscivorus piscivorus
T1 sequence (P51972 1-123): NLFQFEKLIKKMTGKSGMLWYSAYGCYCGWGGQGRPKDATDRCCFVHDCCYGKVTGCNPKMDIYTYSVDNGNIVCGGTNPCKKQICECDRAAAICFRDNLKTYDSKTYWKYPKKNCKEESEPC
Description: Short-chain phospholipids, such as didecanoyl phosphatidylcholine (DCPC), activate extracellular PLA2. The effect on calcein permeation across the target membranes induced by incorporation of a small amount of DCPC into the carrier PEG-liposomes is also shown in FIG. 12.a. […] In contrast we find that a small amount of cholesterol (≈3 mol %) activates extracellular PLA2. These significant findings are of particular interest since the blood circulation time of PEG-liposomes has been reported to be almost the same without cholesterol as with large amounts of cholesterol.

[2] = Calcein release across target membrane on adding hydrolysis products in the absence of PLA2; conditions: 25 μM target membranes, 39° C.
Description: Total release after 20 min of the fluorescent model drug calcein across the target membrane as a function of adding increasing amounts of lyso-palmitoyl phospholipid and palmitic acid, separately, and in a 1:1 mixture. The concentration of the target membranes is 25 μM in a HEPES buffer with pH=7.5 at a temperature of 39° C.
The experimental model system consists of a polymer-coated liposome carrier and a model target membrane. The carrier is a 100 nm unilamellar liposome made of dipalmitoyl phosphatidylcholine lipids (DPPC) with 2.5 mol % lipopolymer of the type dipalmitoyl phosphatidylethanolamine (DPPE)-PEG2000. The target membrane is another liposome made of 1,2-O-dioctadecyl-sn-glycero-phosphatidylcholine (D-O-SPC) which is a phospholipid where the acyl linkages of the stearoyl chains are ether bonds. In contrast to DPPC, D-O-SPC is inert towards PLA2-catalysed hydrolysis thereby mimicking the stability of an intact target cell membrane toward degradation by its own enzymes. […] The permeation of calcein across the D-O-SPC target membrane is subsequently monitored by the increase in fluorescence. […]

CCCCCCCCCCCCCCCCCCOC[C@H](COP(=O)([O-])OCC[N+](C)(C)C)OC [ET-18-OCH3]
Survival (30 min), number of surviving mice (mice): 0/5
mortality of treated mice (mice): died within the 30 minutes period
hemolysis (FIG. 6) [1]: significant degree of hemolysis

CC(C)CCC[C@@H](C)[C@H]1CC[C@H]2[C@@H]3CC=C4C[C@@H](O)CC[C@]4(C)[C@H]3CC[C@]12C [cholesterol]
extracellular PLA2 activity (extracellular PLA2; ≈3 mol % cholesterol incorporated into liposomes): activates
extracellular PLA2 activity (extracellular PLA2; ≈20 mol % cholesterol incorporated into liposomes, data not shown): deactivated

CCCCCCCCCCCCCCCC(=O)O [fatty acid, palmitic acid]
rate of calcein release across the target membrane (FIG. 13) [2]: increased rate
